Laboratory results from article PMC11062899, “De novo development of small cyclic peptides that are orally bioavailable” (Nature Chemical Biology, 2023).
Where “and” joins values, the source holds several entries; their conditions need not be identical. Identical values can stand only once.

Legend:
[1] = Passive artificial membrane permeability (PAMPA); conditions: for PAMPA permeability: % permeability: 50 μM, 12–18 h, acceptor concentration relative to equilibrium; for Papp at 50 μM / Permeability% Average / Permeability% R1 / Permeability% R3: PAMPA; for Papp at 50 μM: pH 7.4; for Permeability% Average: average of R1-R3; for Permeability% R1: replicate R1; for Permeability% R1 / Permeability% R3: TIC of top well sample relative to sample at theoretical equilibrium; for Permeability% R3: replicate R3
[2] = Metabolic stability in rat liver microsomes (RLMs); conditions: rat, microsomes
rat α-thrombin = molecular target: T1, rat α-thrombin (Rattus norvegicus, UniProt P18292); experiment: Protease inhibition, Ki for rat α-thrombin (fluorogenic substrate Z-Gly-Gly-Arg-AMC); format: biochemical; conditions: replicates R1-R3
T1 construct: rat α-thrombin (Molecular Innovations) were used at final concentrations of 2 nM and 3 nM; purchased Molecular Innovations
How it was run: (§1)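 Inhibition was measured as AMC fluorescence from 50 μM substrate, monitored for 30 min at 25 °C, relative to a peptide-free control. Human and rat enzymes were present at 2 nM and 3 nM final, respectively, in 50 mM Tris-HCl pH 7.4, 150 mM NaCl, 10 mM MgCl2, 1 mM CaCl2. Ki derives from fitted IC50 via Cheng–Prusoff.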

porcine pancreatin = experiment: Peptide stability in simulated intestinal fluid (SIF); format: in vitro ADME; conditions: after 8 h vs 0 h (TIC); for SIF stability, Residual peptide Average: average of R1-R3; for SIF stability, Residual peptide: single replicates R1-R3
How it was run: (§2)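 Peptide from a 1 mM DMSO stock was added to fluid pre-warmed at 37 °C. SGF was pH 1.2 NaCl with porcine pepsin (0.32 g per 100 ml), and SIF was pH 6.8 potassium phosphate with porcine pancreatin (1 g per 100 ml). Supernatant peptide was quantified by LC–MS, with residual expressed as T1/T0.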

[3] = as above; format: in vitro ADME, porcine; conditions: simulated gi fluid; 8 h, 37 °C, pH 6.8; read-out: Proteolytic stability: SIF (8 h) % remaining
How it was run: as §2

human α-thrombin = human α-thrombin (Homo sapiens, UniProt P00734); experiment: Protease inhibition, Ki for human α-thrombin (fluorogenic substrate Z-Gly-Gly-Arg-AMC); format: biochemical; conditions: replicates R1-R3
How it was run: as §1

porcine pepsin = molecular target: T2, porcine pepsin (Sus scrofa, UniProt P00791); experiment: Peptide stability in simulated gastric fluid (SGF); format: in vitro ADME; conditions: for SGF stability, Residual peptide Average / SGF stability, Residual peptide: after 8 h vs 0 h (TIC); for SGF stability, Residual peptide Average: average of R1-R3; for SGF stability, Residual peptide: single replicates R1-R3; for remaining at 8 h: simulated gi fluid, 37 °C, pH 1.2, read-out: Proteolytic stability: SGF (8 h) % remaining
T2 construct: 0.32 g of porcine pepsin (Sigma-Aldrich, P7125) was dissolved under gentle agitation; purchased Sigma-Aldrich P7125
How it was run: as §2

[4] = CL (ul/min/mg protein) R1, RLM CL, replicate R1
[5] = CL (ul/min/mg protein) R2, RLM CL, replicate R2
[6] = CL (ul/min/mg protein) R3, RLM CL, replicate R3
[7] = Half Life (min) R1, RLM metabolic stability, replicate R1, 0-60 min
[8] = Half Life (min) R2, RLM metabolic stability, replicate R2, 0-60 min
[9] = Half Life (min) R3, RLM metabolic stability, replicate R3, 0-60 min
[10] = Metabolic stability: Half life T1/2 (min), RLMs, mean and SD, three measurements
[11] = Metabolic stability: RLM CL (ul/min/mg), RLMs, mean and SD, three measurements
[12] = peptide 1.33E+02 uM, slope of proteolytic substrate cleavage over time

T2 sequence (P00791 60-385): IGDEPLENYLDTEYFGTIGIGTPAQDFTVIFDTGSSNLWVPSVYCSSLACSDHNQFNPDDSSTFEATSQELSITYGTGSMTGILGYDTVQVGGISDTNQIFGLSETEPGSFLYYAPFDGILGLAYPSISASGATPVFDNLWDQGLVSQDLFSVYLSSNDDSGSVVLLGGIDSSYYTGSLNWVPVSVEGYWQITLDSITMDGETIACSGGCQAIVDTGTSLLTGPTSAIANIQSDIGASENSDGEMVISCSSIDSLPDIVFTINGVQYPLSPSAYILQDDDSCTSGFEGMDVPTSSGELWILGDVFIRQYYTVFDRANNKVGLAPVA

O=C(N[C@H]1CSCc2cccc(n2)CSCCNC(=O)[C@H](Cc2ccccn2)NC(=O)C2(CCCC2)NC1=O)c1ccc(Cl)s1 [compound 28]
PAMPA permeability: % permeability [1]: 30 ± 7% | Papp at 50 μM [1]: 22.9 nm/s | Permeability% Average [1]: 29.5% | Permeability% R1 [1]: 35.05% | Permeability% R3 [1]: 31.19% | microsomal CLint [2, 4]: 81.1 µL/min/mg | microsomal CLint [2, 5]: 96.1 µL/min/mg | microsomal CLint [2, 6]: 78 µL/min/mg | half-life [2, 7]: 17.1 min | half-life [2, 8]: 14.4 min | half-life [2, 9]: 17.8 min | half-life [2, 10]: 16.4 ± 1.4 min | microsomal CLint [2, 11]: 85 ± 8 µL/min/mg | Rat alpha thrombin inhibition, slope normalized to DMSO (rat α-thrombin; [12]): 12.2 (2×) and 11.8 | Rat alpha thrombin inhibition, slope normalized to DMSO (rat α-thrombin; peptide 1.67E+01 uM): 38.3 and 37.3 and 38.4 | Rat alpha thrombin inhibition, slope normalized to DMSO (rat α-thrombin; peptide 2.08E+00 uM): 79.7 and 78.5 and 79.5 | Rat alpha thrombin inhibition, slope normalized to DMSO (rat α-thrombin; peptide 3.33E+01 uM): 24.3 and 23.3 and 23.8 | Rat alpha thrombin inhibition, slope normalized to DMSO (rat α-thrombin; peptide 4.17E+00 uM): 68.5 and 68.7 and 67.7 | Rat alpha thrombin inhibition, slope normalized to DMSO (rat α-thrombin; peptide 6.67E+01 uM): 14.7 and 14.3 and 13.4 | Rat alpha thrombin inhibition, slope normalized to DMSO (rat α-thrombin; peptide 8.33E+00 uM): 56.8 and 54.3 and 57.8 | SIF stability, Residual peptide Average (porcine pancreatin): 94.01 | SIF stability, Residual peptide (porcine pancreatin): 86.19 and 87.95 and 107.89 | remaining at 8 h [3]: 94 ± 12% | Human alpha thrombin inhibition, slope normalized to DMSO (human α-thrombin; peptide 1.02E-03 uM): 100.6 and 102.2 and 99.4 | Human alpha thrombin inhibition, slope normalized to DMSO (human α-thrombin; peptide 1.04E+00 uM): 91.1 and 87.4 and 92.0 | Human alpha thrombin inhibition, slope normalized to DMSO (human α-thrombin; peptide 1.27E-04 uM): 100.4 and 99.0 and 100.8 | Human alpha thrombin inhibition, slope normalized to DMSO (human α-thrombin; peptide 1.30E-01 uM): 103.2 and 98.5 and 101.7 | Human alpha thrombin inhibition, slope normalized to DMSO (human α-thrombin; [12]): 16.8 and 18.7 and 23.0 | Human alpha thrombin inhibition, slope normalized to DMSO (human α-thrombin; peptide 1.63E-02 uM): 79.4 and 98.4 and 92.1 | Human alpha thrombin inhibition, slope normalized to DMSO (human α-thrombin; peptide 1.67E+01 uM): 53.5 and 53.3 and 56.4 | Human alpha thrombin inhibition, slope normalized to DMSO (human α-thrombin; peptide 2.03E-03 uM): 77.9 and 96.7 and 93.1 | Human alpha thrombin inhibition, slope normalized to DMSO (human α-thrombin; peptide 2.08E+00 uM): 88.5 and 72.9 and 90.5 | Human alpha thrombin inhibition, slope normalized to DMSO (human α-thrombin; peptide 2.54E-04 uM): 100.6 and 92.1 and 94.0 | Human alpha thrombin inhibition, slope normalized to DMSO (human α-thrombin; peptide 2.60E-01 uM): 98.5 and 95.3 and 96.4 | Human alpha thrombin inhibition, slope normalized to DMSO (human α-thrombin; peptide 3.18E-05 uM): 102.4 and 100.9 (2×) | Human alpha thrombin inhibition, slope normalized to DMSO (human α-thrombin; peptide 3.26E-02 uM): 99.5 and 98.1 and 103.6 | Human alpha thrombin inhibition, slope normalized to DMSO (human α-thrombin; peptide 3.33E+01 uM): 35.9 and 38.0 and 41.6 | Human alpha thrombin inhibition, slope normalized to DMSO (human α-thrombin; peptide 4.07E-03 uM): 103.3 and 98.8 and 95.5 | Human alpha thrombin inhibition, slope normalized to DMSO (human α-thrombin; peptide 4.17E+00 uM): 79.3 and 79.5 and 79.0 | Human alpha thrombin inhibition, slope normalized to DMSO (human α-thrombin; peptide 5.09E-04 uM): 102.1 and 100.7 and 91.1 | Human alpha thrombin inhibition, slope normalized to DMSO (human α-thrombin; peptide 5.21E-01 uM): 99.8 and 93.6 and 95.9 | Human alpha thrombin inhibition, slope normalized to DMSO (human α-thrombin; peptide 6.36E-05 uM): 102.4 and 110.3 and 102.0 | Human alpha thrombin inhibition, slope normalized to DMSO (human α-thrombin; peptide 6.51E-02 uM): 102.8 and 95.7 and 101.3 | Human alpha thrombin inhibition, slope normalized to DMSO (human α-thrombin; peptide 6.67E+01 uM): 23.2 and 24.0 and 29.0 | Human alpha thrombin inhibition, slope normalized to DMSO (human α-thrombin; peptide 8.14E-03 uM): 99.1 and 108.8 and 87.5 | Human alpha thrombin inhibition, slope normalized to DMSO (human α-thrombin; peptide 8.33E+00 uM): 72.2 and 85.5 and 69.3 | SGF stability, Residual peptide Average (porcine pepsin): 95.21 | SGF stability, Residual peptide (porcine pepsin): 100.04 and 92.83 and 92.76 | remaining at 8 h (porcine pepsin): 95 ± 4%

O=C1CCSCc2cccc(n2)CSCCNC(=O)C2CN(C(=O)c3ccc(Cl)s3)CCN2C(=O)[C@H](CO)N1 (some centres unmarked) [compound 24]
PAMPA permeability: % permeability [1]: 2.0 ± 1.7% | Papp at 50 μM [1]: 0.49 nm/s | Permeability% Average [1]: 2.0% | Permeability% R1 [1]: 0.0459% | Permeability% R3 [1]: 3.39% | microsomal CLint [2, 4]: 75.7 µL/min/mg | microsomal CLint [2, 5]: 76.9 µL/min/mg | microsomal CLint [2, 6]: 68.3 µL/min/mg | half-life [2, 7]: 18.3 min | half-life [2, 8]: 18 min | half-life [2, 9]: 20.3 min | half-life [2, 10]: 18.9 ± 1 min | microsomal CLint [2, 11]: 74 ± 4 µL/min/mg | Rat alpha thrombin inhibition, slope normalized to DMSO (rat α-thrombin; [12]): 3.2 and 2.1 and 2.4 | Rat alpha thrombin inhibition, slope normalized to DMSO (rat α-thrombin; peptide 1.67E+01 uM): 12.6 and 11.9 and 11.7 | Rat alpha thrombin inhibition, slope normalized to DMSO (rat α-thrombin; peptide 2.08E+00 uM): 49.1 and 48.5 and 49.4 | Rat alpha thrombin inhibition, slope normalized to DMSO (rat α-thrombin; peptide 3.33E+01 uM): 7.2 and 6.5 and 6.2 | Rat alpha thrombin inhibition, slope normalized to DMSO (rat α-thrombin; peptide 4.17E+00 uM): 33.5 and 33.2 and 33.1 | Rat alpha thrombin inhibition, slope normalized to DMSO (rat α-thrombin; peptide 6.67E+01 uM): 4.2 and 3.4 and 3.2 | Rat alpha thrombin inhibition, slope normalized to DMSO (rat α-thrombin; peptide 8.33E+00 uM): 18.9 and 18.7 and 17.7 | SIF stability, Residual peptide Average (porcine pancreatin): 94.64 | SIF stability, Residual peptide (porcine pancreatin): 97.98 and 88.07 and 97.88 | remaining at 8 h [3]: 95 ± 6% | Human alpha thrombin inhibition, slope normalized to DMSO (human α-thrombin; peptide 1.02E-03 uM): 95.9 and 98.2 and 97.4 | Human alpha thrombin inhibition, slope normalized to DMSO (human α-thrombin; peptide 1.04E+00 uM): 81.9 and 85.8 and 83.3 | Human alpha thrombin inhibition, slope normalized to DMSO (human α-thrombin; peptide 1.27E-04 uM): 100.0 | Human alpha thrombin inhibition, slope normalized to DMSO (human α-thrombin; peptide 1.30E-01 uM): 95.8 and 97.8 | Human alpha thrombin inhibition, slope normalized to DMSO (human α-thrombin; [12]): 5.8 and 7.8 and 9.3 | Human alpha thrombin inhibition, slope normalized to DMSO (human α-thrombin; peptide 1.63E-02 uM): 98.1 and 95.1 | Human alpha thrombin inhibition, slope normalized to DMSO (human α-thrombin; peptide 1.67E+01 uM): 24.2 and 34.4 and 34.5 | Human alpha thrombin inhibition, slope normalized to DMSO (human α-thrombin; peptide 2.03E-03 uM): 107.0 | Human alpha thrombin inhibition, slope normalized to DMSO (human α-thrombin; peptide 2.08E+00 uM): 75.9 and 67.7 and 77.5 | Human alpha thrombin inhibition, slope normalized to DMSO (human α-thrombin; peptide 2.54E-04 uM): 106.8 and 94.5 and 91.2 | Human alpha thrombin inhibition, slope normalized to DMSO (human α-thrombin; peptide 2.60E-01 uM): 93.5 and 89.6 and 97.8 | Human alpha thrombin inhibition, slope normalized to DMSO (human α-thrombin; peptide 3.18E-05 uM): 101.5 and 97.9 and 106.2 | Human alpha thrombin inhibition, slope normalized to DMSO (human α-thrombin; peptide 3.26E-02 uM): 103.3 and 97.7 and 104.2 | Human alpha thrombin inhibition, slope normalized to DMSO (human α-thrombin; peptide 3.33E+01 uM): 16.8 and 22.5 and 20.8 | Human alpha thrombin inhibition, slope normalized to DMSO (human α-thrombin; peptide 4.07E-03 uM): 97.2 and 91.1 | Human alpha thrombin inhibition, slope normalized to DMSO (human α-thrombin; peptide 4.17E+00 uM): 54.3 and 66.2 and 66.1 | Human alpha thrombin inhibition, slope normalized to DMSO (human α-thrombin; peptide 5.09E-04 uM): 94.9 and 97.9 | Human alpha thrombin inhibition, slope normalized to DMSO (human α-thrombin; peptide 5.21E-01 uM): 90.1 and 82.7 and 89.7 | Human alpha thrombin inhibition, slope normalized to DMSO (human α-thrombin; peptide 6.36E-05 uM): 101.8 and 98.6 and 104.2 | Human alpha thrombin inhibition, slope normalized to DMSO (human α-thrombin; peptide 6.51E-02 uM): 97.4 and 97.6 | Human alpha thrombin inhibition, slope normalized to DMSO (human α-thrombin; peptide 6.67E+01 uM): 12.2 and 13.3 and 13.7 | Human alpha thrombin inhibition, slope normalized to DMSO (human α-thrombin; peptide 8.14E-03 uM): 97.0 and 98.1 and 103.6 | Human alpha thrombin inhibition, slope normalized to DMSO (human α-thrombin; peptide 8.33E+00 uM): 51.4 and 50.3 and 44.5 | SGF stability, Residual peptide Average (porcine pepsin): 99.25 | SGF stability, Residual peptide (porcine pepsin): 102.40 and 99.33 and 96.01 | remaining at 8 h (porcine pepsin): 99 ± 3%
